Experimental findings from patent US20220235043A1, “SUBSTITUTED SULFONAMIDE PYRROLOPYRIDINES AS JAK INHIBITORS” (ACLARIS THERAPEUTICS, INC., priority 2019, published 2022) are described below.

Data set [1] deals with IFNγ stimulated STAT1 phosphorylation on Tyr701 (JAK1/2). As to the kind of experiment: JAK1/2 cellular target modulation: IFNγ stimulated phospho-STAT1 in human PBMC. The format is cell-based. The conditions noted are these: IFNγ 10 ng/ml, read-out: Infγ-STAT1 IC50. Put shortly: (§1)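 Thawed human PBMC (200,000/well) preincubated with compound 1 h at 37°C, then stimulated with IL-12 1.7 ng/ml for 25 min, IFNγ 10 ng/ml for 10 min, or IL-2 25 ng/ml for 5 min. Lysate phospho-STAT4 Tyr693 and phospho-STAT5 Tyr694 read by MSD; phospho-STAT1 Tyr701 by sandwich ELISA.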

For a further data set, the target named is T1, JAK2 (Homo sapiens, UniProt O60674).
T1 construct: purchased Thermo Fisher Scientific (SelectScreen service)
As to the kind of experiment: JAK2 enzyme activity assay (Thermo Fisher Selectscreen, Z-lyte). It counts as biochemical. The conditions noted are these: read-out: JAK2 Inhibition IC50. An outline of the steps: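 Z-lyte FRET kinase format: 0.12-0.5 ng JAK2 with 2 μM Tyr 06 peptide in HEPES pH 7.5, 10 mM MgCl2, 1 h reaction, then development reagent. Compounds were run as 11-point dose-response, 2% DMSO vehicle. IC50 came from 4-parameter logistic fit of emission ratio.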

The nature of a further data set: GI Exposure PK in Mice. It counts as in vivo. The conditions noted are these: mouse, male BalbC mice, oral dose of 5 mg/kg. The procedure: The test compound, Example 75, was wetted with ˜0.025% of Tween-20 and triturated in a mortar and pestle, then slowly 0.5% of methyl cellulose was added to make up the final volume to 7.25 mL. The BalbC test animals were subjected to anesthesia induced with a mixture of 5% isoflurane and 0.8-1.5 L/min O2 gas flow. The formulated test compound was then dosed via oral gavage. At various time points (0.5, 1, 2, 4, 6 and 8 h) blood samples (˜100 μL) were collected from portal vein (pre-hepatic) followed by cardiac puncture (circulating) into tubes containing 2% w/v aqueous K2 EDTA solution as per time points. Post blood sampling, the gastro intestine (GI) tissues were collected from the mice at the same time points. The GI tissue was dissected into different parts as duodenum, jejunum, ileum and colon. The separated tissues were washed by flushing with PBS via oral gavage needle to remove GI content. Post collection all the tissues were blotted, weighed and homogenized with PBS buffer (pH 7.4). The blood samples were immediately placed on ice and centrifuged within 30 min at 4° C. for 5 min at 8,000 rpm to obtain plasma. Plasma was transferred by pipettes to pre-labelled centrifuge tubes and immediately transferred to −80° C. until bioanalysis. Tissue samples were placed in pre-labelled container and all samples were kept in −80° C. until homogenized. The homogenate was stored immediately in −80° C. until bioanalysis was conducted. Study samples were thawed to room temperature and 50 μL of sample was aliquoted into pre-labeled vials. To these was added 400 μL of 100% acetonitrile containing an IS (100 ng/mL; warfarin, tolbutamide and loperamide). The vials were mixed well, vortexed for 5 min, followed by centrifugation for 5 min at 14000 rpm at 4° C. The supernatant was separated and same was injected on LC-MS/MS. Plasma and GI tissue levels of test compound were determined by LC-MS analysis using a standard curve in the text matrix. Individual concentration-time data were analyzed using Phoenix WinNonlin (Version 8.1) by the non-compartmental analysis (NCA) method.

Data set [2] deals with IL-12 stimulated STAT4 phosphorylation on Tyr693 (JAK2/TYK2). As to the kind of experiment: JAK2/TYK2 cellular target modulation: IL-12 stimulated phospho-STAT4 in human PBMC. It counts as cell-based. The note with it: IL-12 1.7 ng/ml, read-out: IL12-STAT4 IC50. An outline of the steps: as §1
Where [3] appears, read: portal vein plasma, Portal plasma.

Molecules are shown by their SMILES.

T1 sequence (O60674 whole entry): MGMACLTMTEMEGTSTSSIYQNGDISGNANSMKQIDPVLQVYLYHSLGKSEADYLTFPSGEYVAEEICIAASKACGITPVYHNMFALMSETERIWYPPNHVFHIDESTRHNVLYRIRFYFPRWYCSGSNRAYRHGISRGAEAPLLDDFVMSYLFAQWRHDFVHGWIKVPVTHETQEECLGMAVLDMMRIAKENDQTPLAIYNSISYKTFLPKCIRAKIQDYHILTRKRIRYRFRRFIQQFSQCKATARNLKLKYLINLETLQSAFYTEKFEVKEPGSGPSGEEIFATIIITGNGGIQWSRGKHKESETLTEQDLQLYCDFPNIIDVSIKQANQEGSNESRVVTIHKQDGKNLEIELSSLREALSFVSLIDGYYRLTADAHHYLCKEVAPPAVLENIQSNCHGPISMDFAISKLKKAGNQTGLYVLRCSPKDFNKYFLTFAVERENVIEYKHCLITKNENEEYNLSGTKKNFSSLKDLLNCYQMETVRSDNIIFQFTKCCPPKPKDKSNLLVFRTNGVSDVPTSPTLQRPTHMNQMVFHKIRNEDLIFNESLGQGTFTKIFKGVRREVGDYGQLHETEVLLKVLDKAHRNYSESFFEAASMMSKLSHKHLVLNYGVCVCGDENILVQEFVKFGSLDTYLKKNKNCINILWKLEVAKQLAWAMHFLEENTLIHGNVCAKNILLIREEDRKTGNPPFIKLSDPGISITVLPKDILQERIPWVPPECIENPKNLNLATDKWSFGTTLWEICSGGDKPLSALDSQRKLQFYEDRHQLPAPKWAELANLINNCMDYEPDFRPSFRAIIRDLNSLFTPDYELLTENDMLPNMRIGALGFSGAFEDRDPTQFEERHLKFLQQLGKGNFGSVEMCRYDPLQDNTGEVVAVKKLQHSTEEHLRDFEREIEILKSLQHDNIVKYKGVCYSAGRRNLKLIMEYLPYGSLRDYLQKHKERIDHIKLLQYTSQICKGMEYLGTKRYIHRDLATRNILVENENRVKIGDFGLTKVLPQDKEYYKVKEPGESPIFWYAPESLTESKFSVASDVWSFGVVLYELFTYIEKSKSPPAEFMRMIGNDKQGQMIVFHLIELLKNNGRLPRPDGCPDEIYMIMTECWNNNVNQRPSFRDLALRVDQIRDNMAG

In the case of `Cc1nnc(-c2cnc3[nH]ccc3c2N[C@H]2C[C@@H](NS(=O)(=O)c3cccc(C#N)c3)C2)s1` [Example 75, 3-cyano-N-((1s,3s)-3-((5-(5-methyl-1,3,4-thiadiazol-2-yl)-1H-pyrrolo[2,3-b]pyridin-4-yl)amino)cyclobutyl)benzenesulfonamide], the IC50 in data set [1] is 100 to 1000 nM; on JAK2, ≤ 10 nM; in data set [2] it was 100 to 1000 nM. Moreover, the AUC in “GI Exposure PK in Mice” (setting [3]) was found to be 247 ng·h/mL; in the data set “GI Exposure PK in Mice” (Colon), 5950 ng·h/mL; in the data set “GI Exposure PK in Mice” (Duodenum) it was 1510 ng·h/mL; in the data set “GI Exposure PK in Mice” (Ileum) it was 24500 ng·h/mL; in the data set “GI Exposure PK in Mice” (Jejunum), 13300 ng·h/mL. For the same molecule, the Tmax in “GI Exposure PK in Mice” (setting [3]) amounted to 2 h; in the data set “GI Exposure PK in Mice” (Colon), 4 h; in “GI Exposure PK in Mice” (Duodenum), 0.5 h; in “GI Exposure PK in Mice” (Ileum), 2 h; in the data set “GI Exposure PK in Mice” (Jejunum) it was 0.5 h.

As usually defined, the IC50 is the concentration needed to halve the response being measured. What is called AUC is the area under the concentration-time curve, a measure of exposure. As usually defined, the Tmax is the time from dosing to the highest level.
